For 35 compounds, IC50 results are on record in patent EP4585599A1, “NITROGEN-CONTAINING FUSED RING COMPOUND, INTERMEDIATE THEREOF, PREPARATION METHOD THEREFOR AND USE THEREOF” (Hangzhou Synrx Therapeutics Biomedical Technology Co., Ltd., priority 2022, dated 2024).

Where two headings read alike, the source gives them in different places.

Assay [1] concerns the target T1, helicase domain of the Pol θ protein (Homo sapiens, UniProt O75417).
T1 construct: The helicase domain of the Pol θ protein was purified from insect protein expression system; made in house; host or cells: insect protein expression system
The experiment in a line: Biochemical Activity Assay (ADP Glo Assay) of Pol θ inhibitor, ATPase activity. The following applies: read-out: Biochemical assay IC50.

A further assay in a line: cells. The following applies: Homo sapiens, DLD-1, 240 h.
Setting [2] is: ADP-Glo assay, ATPase activity of Pol θ helicase domain, ssDNA substrate.
Setting [3] is: ADP-Glo, ssDNA substrate, 60 min at room temperature.
[4] abbreviates: read-out: Cell viability assay IC50 (nM), CTG assay, CellTiter Glo, read on Day 10, cell line not given.
Setting [5] is: read-out: Cell viability assay IC50 (nM), CTG on Day 10, cell line not given (method: DLD1 and DLD1^-/- cells).

T1 sequence (O75417 102-554 limits assumed): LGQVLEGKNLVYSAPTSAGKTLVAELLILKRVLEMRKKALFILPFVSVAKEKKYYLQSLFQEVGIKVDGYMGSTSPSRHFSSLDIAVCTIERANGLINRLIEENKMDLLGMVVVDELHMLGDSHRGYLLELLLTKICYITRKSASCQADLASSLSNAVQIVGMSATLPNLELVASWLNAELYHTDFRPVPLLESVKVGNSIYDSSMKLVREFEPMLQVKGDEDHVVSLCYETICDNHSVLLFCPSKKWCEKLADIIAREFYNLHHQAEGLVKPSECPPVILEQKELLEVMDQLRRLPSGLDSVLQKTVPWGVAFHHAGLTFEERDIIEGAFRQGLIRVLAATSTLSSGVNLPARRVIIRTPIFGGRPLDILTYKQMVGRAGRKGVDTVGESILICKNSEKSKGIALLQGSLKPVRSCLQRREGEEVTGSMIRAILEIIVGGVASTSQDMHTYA

With `COc1cnc(Cl)cc1-c1cc(C)ncc1C(=O)Nc1nc2cc(C3=CCC(O)CC3)cnc2s1` (stereo not shown) [Example 2], the IC50 was 118 nM in assay [1] (setting [2]), 50 to 200 nM in assay [1] (setting [3]), 3160 nM in “cells” (setting [4]) and greater than 1000 nM in the assay “cells” (setting [5]).
Take `COc1cnc(Cl)cc1-c1cc(C)ncc1C(=O)Nc1nc2ncc(C3=CCC(O)CC3)cc2s1` (stereo not shown) [Example 3]: the IC50 was 2.51 nM in assay [1] (setting [2]), less than 50 nM in assay [1] (setting [3]), 13.6 nM in “cells” (setting [4]) and less than 100 nM in the assay “cells” (setting [5]).
As to `COc1cnc(Cl)cc1-c1cnccc1C(=O)Nc1nc2ccc(C3=CCC(O)CC3)nc2s1` (stereo not shown) [Example 4], the concentration for half-maximal inhibition (IC50) in assay [1] (setting [2]) is 19.1 nM; in assay [1] (setting [3]), less than 50 nM; in “cells” (setting [4]), 736 nM; in the assay “cells” (setting [5]), 500 to 1000 nM.
`COc1cccc(F)c1-c1cc(C)ncc1C(=O)Nc1nc2ccc(C3=CCC(O)CC3)nc2s1` (stereo not shown) [Example 5]: the IC50 in assay [1] (setting [2]) was 81.5 nM; in assay [1] (setting [3]), 50 to 200 nM; in “cells” (setting [4]), 153 nM; in “cells” (setting [5]), 100 to 500 nM.
Regarding `COc1cnc(Cl)cc1-c1cncnc1C(=O)Nc1nc2ccc(C3=CCC(O)CC3)nc2s1` (stereo not shown) [Example 6], the IC50 in assay [1] (setting [2]) is 193 nM; in assay [1] (setting [3]), 50 to 200 nM; in the assay “cells” (setting [4]) it was 794 nM; in the assay “cells” (setting [5]), 500 to 1000 nM.
As to `Cc1cc(-c2c(F)cccc2OC(F)F)c(C(=O)Nc2nc3ccc(C4=CCC(O)CC4)nc3s2)cn1` (stereo not shown) [Example 7], the 50% inhibitory concentration (IC50) in assay [1] (setting [2]) was 26.4 nM; in assay [1] (setting [3]) it was less than 50 nM; in “cells” (setting [4]) it was 73.6 nM; in “cells” (setting [5]), less than 100 nM.
The like results for `COc1cnc(Cl)c(F)c1-c1cc(C)ncc1C(=O)Nc1nc2ncc(C3=CCC(O)CC3)cc2s1` (stereo not shown) [Example 8] were, in that order, 1.09 nM, less than 50 nM, 24.2 nM and less than 100 nM.
On the same counts, the results for `COc1cnc(Cl)cc1-c1cc(C)ncc1C(=O)Nc1nc2ccc(C3=CCN(C)CC3)nc2s1` [Example 10] are 33.1 nM, less than 50 nM, 446 nM and 100 to 500 nM.
Regarding `COc1cnc(Cl)cc1-c1cc(C)ncc1C(=O)Nc1nc2ncc(C3=CCC(O)CC3)nc2s1` (stereo not shown) [Example 12], the half-maximal inhibitory concentration (IC50) is 2.41 nM in assay [1] (setting [2]), less than 50 nM in assay [1] (setting [3]), 15.3 nM in “cells” (setting [4]) and less than 100 nM in “cells” (setting [5]).
In the case of `COc1cnc(Cl)cc1-c1cc(C)ncc1C(=O)Nc1nc2c(F)cc(C3=CCC(O)CC3)cc2s1` (stereo not shown) [Example 13], the IC50 was 2.89 nM in assay [1] (setting [2]), less than 50 nM in assay [1] (setting [3]), 5.84 nM in the assay “cells” (setting [4]) and less than 100 nM in “cells” (setting [5]).
In the case of `COc1cnc(Cl)cc1-c1cc(C)ncc1C(=O)Nc1nc2ncc(C3=CCOCC3)cc2s1` [Example 14], the IC50 in assay [1] (setting [2]) was 2.74 nM; in assay [1] (setting [3]), less than 50 nM; in “cells” (setting [4]), 31.6 nM; in “cells” (setting [5]), less than 100 nM.
As for `COc1cnc(Cl)cc1-c1cc(C)ncc1C(=O)Nc1nc2ccc(C3=CCC(O)CC3)cc2s1` (stereo not shown) [Example 15], the IC50 is 3.55 nM in assay [1] (setting [2]), less than 50 nM in assay [1] (setting [3]), 14.7 nM in the assay “cells” (setting [4]) and less than 100 nM in “cells” (setting [5]).
`COc1cnc(Cl)cc1-c1cc(C)ncc1C(=O)Nc1nc2ncc(C3=CCNCC3)cc2s1` [Example 16]: the IC50 in assay [1] (setting [2]) was 13.5 nM; in assay [1] (setting [3]), less than 50 nM; in the assay “cells” (setting [4]), 2330 nM; in “cells” (setting [5]), greater than 1000 nM.
On the same counts, the results for `COc1cnc(Cl)c(F)c1-c1cc(C)ncc1C(=O)Nc1nc2ncc(-c3ccn(C)n3)cc2s1` [Example 17] are 8.57 nM, less than 50 nM, 103 nM and 100 to 500 nM.
`COc1cnc(Cl)cc1-c1cc(C)ncc1C(=O)Nc1nc2ncc(-c3cnc4[nH]ccc4c3)cc2s1` [Example 19]: the IC50 in assay [1] (setting [2]) was 72.1 nM; in assay [1] (setting [3]), 50 to 200 nM; in the assay “cells” (setting [4]), 261 nM; in “cells” (setting [5]), 100 to 500 nM.
Regarding `COc1cnc(Cl)cc1-c1cc(C)ncc1C(=O)Nc1nc2ccc(C3=CCC(O)CC3)c(F)c2s1` (stereo not shown) [Example 20], the concentration for half-maximal inhibition (IC50) is 2.95 nM in assay [1] (setting [2]), less than 50 nM in assay [1] (setting [3]), 7.64 nM in “cells” (setting [4]) and less than 100 nM in the assay “cells” (setting [5]).
For the compound `COc1cnc(Cl)cc1-c1cc(C)ncc1C(=O)Nc1nc2ncc(C3=CCC(N)CC3)cc2s1` (stereo not shown) [Example 21], the IC50 was 3.48 nM in assay [1] (setting [2]), less than 50 nM in assay [1] (setting [3]), 76.4 nM in the assay “cells” (setting [4]) and less than 100 nM in “cells” (setting [5]).
Take `COc1cnc(Cl)cc1-c1cc(C)ncc1C(=O)Nc1nc2ccc(C3=CCC(O)CC3)c(C#N)c2s1` (stereo not shown) [Example 22]: the IC50 in assay [1] (setting [2]) was 115 nM; in assay [1] (setting [3]), 50 to 200 nM; in the assay “cells” (setting [4]), 1580 nM; in the assay “cells” (setting [5]) it was greater than 1000 nM.
On the same counts, the results for `COc1cnc(Cl)cc1-c1cc(C)ncc1C(=O)Nc1nc2ncc(C3=CCC(NC(C)=O)CC3)cc2s1` (stereo not shown) [Example 23] are 2.84 nM, less than 50 nM, 15.3 nM and less than 100 nM.
For `COc1cnc(Cl)cc1-c1cc(C)ncc1C(=O)Nc1nc2ccc(-c3ccn(C)n3)nc2s1` [Example 24], the concentration for half-maximal inhibition (IC50) in assay [1] (setting [2]) is 15.2 nM; in assay [1] (setting [3]) it was less than 50 nM; in “cells” (setting [4]), 192 nM; in “cells” (setting [5]), 100 to 500 nM.
On the same counts, the results for `COc1cnc(Cl)cc1-c1cc(C)ncc1C(=O)Nc1nc2ncc(-n3ccccc3=O)cc2s1` [Example 25] are 3.94 nM, less than 50 nM, 138 nM and 100 to 500 nM.
On the same counts, the results for `COc1cnc(Cl)cc1-c1cc(C)ncc1C(=O)Nc1nc2ccc([C@H]3CC[C@H](O)CC3)nc2s1` [Example 29] are 12.9 nM, less than 50 nM, 131 nM and 100 to 500 nM.
Take `COc1cnc(Cl)c(F)c1-c1cc(C)ncc1C(=O)Nc1nc2ccc(C3CCC(O)CC3)cc2s1` (stereo not shown) [Example 30]: the IC50 in assay [1] (setting [2]) was 1.62 nM; in assay [1] (setting [3]), less than 50 nM; in “cells” (setting [4]), 19.2 nM; in “cells” (setting [5]), less than 100 nM.
Consider `COc1cccc(F)c1-c1cc(C)ncc1C(=O)Nc1nc2ccc([C@H]3CC[C@@H](O)CC3)nc2s1` [Example 31], for which the values for the IC50 (in assay [1] (setting [2]); in assay [1] (setting [3]); in the assay “cells” (read-out: Cell viability assay IC50 (nM))) were 66.4 nM, 50 to 200 nM and greater than 1000 nM, respectively.
Regarding `COc1cccc(F)c1-c1cc(C)ncc1C(=O)Nc1nc2ccc([C@H]3CC[C@H](O)CC3)nc2s1` [Example 32], the IC50 is 196 nM in assay [1] (setting [2]), 50 to 200 nM in assay [1] (setting [3]), 7080 nM in “cells” (setting [4]) and greater than 1000 nM in “cells” (setting [5]).
On the same counts, the results for `COc1cnc(Cl)cc1-c1cnccc1C(=O)Nc1nc2ccc([C@H]3CC[C@H](O)CC3)nc2s1` [Example 34] are 48.9 nM, less than 50 nM, 2000 nM and greater than 1000 nM.
On to `COc1cnc(Cl)cc1-c1cc(C)ncc1C(=O)Nc1nc2cc(C3CCC(O)CC3)cnc2s1` (stereo not shown) [Example 35], for which the IC50 in assay [1] (setting [2]) is 251 nM; in assay [1] (setting [3]), 200 to 500 nM; in the assay “cells” (setting [4]), 3290 nM; in the assay “cells” (setting [5]), greater than 1000 nM.
For the compound `COc1cnc(Cl)cc1-c1cc(C)ncc1C(=O)Nc1nc2ccc(C3CCN(C)CC3)nc2s1` [Example 36], the half-inhibitory concentration (IC50) was 236 nM in assay [1] (setting [2]), 200 to 500 nM in assay [1] (setting [3]), 584 nM in “cells” (setting [4]) and 500 to 1000 nM in the assay “cells” (setting [5]).
Turning to `COc1cnc(Cl)cc1-c1cc(C)ncc1C(=O)Nc1nc2cnc(-c3c(F)cnn3CCO)cc2s1` [Example 168], the IC50 in the assay “cells” (setting [4]) is 4.46 nM.
Regarding `COc1cnc(Cl)cc1-c1cc(C)ncc1C(=O)Nc1nc2cnc(-c3c(C)nnn3C)c(C#N)c2s1` [Example 228, 2'-chloro-N-(7-cyano-6-(1,4-dimethyl-1H-1,2,3-triazol-5-yl)thiazolo[4,5-c]pyridin-2-yl)-5'-methoxy-6-methyl-[4,4'-bipyridine]-3-carboxamide], the 50% inhibitory concentration (IC50) in assay [1] (setting [2]) was 111 nM.
As for `COc1cnc(Cl)cc1-c1cc(C)ncc1C(=O)Nc1nc2cnc(-c3c(C)nnn3C)c(OC)c2s1` [Example 229, 2'-chloro-N-(6-(1,4-dimethyl-1H-1,2,3-triazol-5-yl)-7-methoxythiazolo[4,5-c]pyridin-2-yl)-5'-methoxy-6-methyl-[4,4'-bipyridine]-3-carboxamide], the 50% inhibitory concentration (IC50) in assay [1] (setting [2]) worked out at 36.7 nM.
In the case of `[2H]C([2H])([2H])Oc1cnc(Cl)cc1-c1cc(C)ncc1C(=O)Nc1nc2cnc(-c3c(C)nnn3C)c(F)c2s1` [Example 230, 2'-chloro-N-(6-(1,4-dimethyl-1H-1,2,3-triazol-5-yl)-7-fluorothiazolo[4,5-c]pyridin-2-yl)-5'-(methoxy-d3)-6-methyl-[4,4'-bipyridine]-3-carboxamide], in assay [1] (setting [2]), the IC50 is 2.84 nM.
Consider `[2H]C([2H])([2H])Oc1cnc(Cl)cc1-c1cc(C([2H])([2H])[2H])ncc1C(=O)Nc1nc2cnc(-c3c(C)nnn3C)c(F)c2s1` [Example 231, 2'-chloro-N-(6-(1,4-dimethyl-1H-1,2,3-triazol-5-yl)-7-fluorothiazolo[4,5-c]pyridin-2-yl)-5'-(methoxy-d3)-6-(methyl-d3)-[4,4'-bipyridine]-3-carboxamide], for which, in assay [1] (setting [2]), the IC50 is 3.08 nM.
In the case of `COc1cnc(Cl)cc1-c1cc(C)ncc1C(=O)Nc1nc2nc(F)c(-c3c(C)nnn3C)cc2s1` [Example 232], the IC50 in assay [1] was 2.51 nM.
For `COc1cnc(Cl)cc1-c1cc(C)ncc1C(=O)Nc1nc2cnc(-c3c(C)nnn3C)c(C)c2s1` [Example 233, 2'-chloro-N-(6-(1,4-dimethyl-1H-1,2,3-triazol-5-yl)-7-methylthiazolo[4,5-c]pyridin-2-yl) -5'-methoxy-6-methyl-[4,4'-bipyridine]-3-carboxamide], the half-maximal inhibitory concentration (IC50) in assay [1] (setting [2]) was 8.58 nM.
